From patent publication US20250129027A1 (APOGEE PHARMACEUTICALS, INC., priority 2023, published 2025)

Assays:
human recombinant MAGL = human recombinant MAGL (Homo sapiens (Human), UniProt Q99685); assay: In vitro inhibition of MAGL activity (inhibitor screening kit, 4-nitrophenylacetate); format: biochemical; details: for IC50: human recombinant MAGL
Outline: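 Colorimetric kit assay: recombinant human MAGL hydrolyses 4-nitrophenylacetate to 4-nitrophenol, read by absorbance at 405-412 nm. Inhibition given as percentage of signal in treated versus untreated MAGL control.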

human recombinant FAAH = human recombinant FAAH (Homo sapiens (Human), UniProt O00519); assay: In vitro inhibition of FAAH activity (fluorescent inhibitor screening kit, AMC arachidonoyl amide); format: biochemical; details: human recombinant FAAH; read-out: Inhibition on FAAH activity (IC50)
human recombinant FAAH, sequence (O00519 whole entry): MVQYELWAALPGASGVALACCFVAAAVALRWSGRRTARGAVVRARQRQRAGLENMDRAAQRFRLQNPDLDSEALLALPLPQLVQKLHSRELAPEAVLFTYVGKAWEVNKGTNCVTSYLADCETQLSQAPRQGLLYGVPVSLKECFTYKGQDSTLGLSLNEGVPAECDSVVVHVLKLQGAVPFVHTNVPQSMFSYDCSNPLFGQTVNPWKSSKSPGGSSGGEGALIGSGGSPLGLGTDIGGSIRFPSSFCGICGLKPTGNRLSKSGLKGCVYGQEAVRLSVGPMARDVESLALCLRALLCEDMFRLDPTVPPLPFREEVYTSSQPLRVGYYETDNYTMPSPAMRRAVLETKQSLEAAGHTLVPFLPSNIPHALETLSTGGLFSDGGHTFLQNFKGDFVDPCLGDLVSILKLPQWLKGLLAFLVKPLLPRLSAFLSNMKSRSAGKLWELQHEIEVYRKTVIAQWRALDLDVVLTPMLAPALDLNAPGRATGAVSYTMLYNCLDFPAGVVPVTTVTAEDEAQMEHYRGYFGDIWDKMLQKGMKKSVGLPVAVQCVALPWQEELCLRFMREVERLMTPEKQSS
Outline: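 Fluorogenic kit assay: AMC arachidonoyl amide is cleaved by human recombinant FAAH, read at 340-360/450-465 nm. Percent inhibition versus non-treated control; IC50 values derived from multiple compound concentrations where tested.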

human recombinant MAGL, sequence (Q99685 whole entry): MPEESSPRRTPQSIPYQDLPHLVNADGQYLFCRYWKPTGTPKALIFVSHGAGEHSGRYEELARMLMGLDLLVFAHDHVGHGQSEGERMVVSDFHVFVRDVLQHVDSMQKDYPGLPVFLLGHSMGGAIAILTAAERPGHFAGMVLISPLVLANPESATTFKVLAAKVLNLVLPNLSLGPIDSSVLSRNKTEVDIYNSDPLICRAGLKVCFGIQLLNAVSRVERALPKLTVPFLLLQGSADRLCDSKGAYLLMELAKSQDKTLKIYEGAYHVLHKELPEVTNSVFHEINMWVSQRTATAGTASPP

COc1ccc(OC(=O)NCc2ccccc2)cc1-c1cncc(-c2ccc[nH]2)c1 [Example 43, 3-(5-(1H-pyrrol-2-yl)pyridin-3-yl)-4-methoxyphenyl benzylcarbamate]
IC50 (human recombinant MAGL): > 10 µM | IC50 (human recombinant FAAH): > 1 µM

O=C(Oc1cccc(-c2cncc(-c3nnco3)c2)c1)N1CCOCC1 [Example 151, 3-(5-(1,3,4-oxadiazol-2-yl)pyridin-3-yl)phenyl morpholine-4-carboxylate]
IC50 (human recombinant MAGL): > 10 µM | IC50 (human recombinant FAAH): 1 to 10 µM

O=C(NCc1ccccc1)Oc1cccc(-c2cncc(-c3nccs3)c2)c1 [Example 117, 3-(5-(thiazol-2-yl)pyridin-3-yl)phenyl benzylcarbamate]
IC50 (human recombinant MAGL): > 10 µM | IC50 (human recombinant FAAH): 0.1 to 1 µM

COc1ccc(OC(=O)NC2CCC(C)CC2)cc1-c1cncc(-c2nnco2)c1 (stereo not drawn) [Example 171, 3-(5-(1,3,4-oxadiazol-2-yl)pyridin-3-yl)-4-methoxyphenyl (4-methylcyclohexyl)carbamate]
IC50 (human recombinant MAGL): > 10 µM | IC50 (human recombinant FAAH): 0.1 to 1 µM

O=C(NC1CCCCCC1)Oc1cccc(-c2cncc(-c3ccc[nH]3)c2)c1 [Example 40, 3-(5-(1H-pyrrol-2-yl)pyridin-3-yl)phenyl cycloheptylcarbamate]
IC50 (human recombinant MAGL): ~10 µM | IC50 (human recombinant FAAH): 0.01 to 0.1 µM

O=C(NCc1ccccc1)Oc1cccc(-c2cncc(-c3ccco3)c2)c1 [Example 49, 3-(5-(furan-2-yl)pyridin-3-yl)phenyl benzylcarbamate]
IC50 (human recombinant MAGL): > 10 µM | IC50 (human recombinant FAAH): 0.1 to 1 µM

COc1ccc(OC(=O)NCC2CCCCC2)cc1-c1cncc(-c2cccs2)c1 [Example 66, 4-methoxy-3-(5-(thiophen-2-yl)pyridin-3-yl)phenyl (cyclohexylmethyl)carbamate]
IC50 (human recombinant MAGL): ~10 µM | IC50 (human recombinant FAAH): 0.1 to 1 µM

Cc1cc(OC(=O)NC2CCCCCCC2)cc(-c2cncc(-c3ncco3)c2)c1 [Example 104, 3-methyl-5-(5-(oxazol-2-yl)pyridin-3-yl)phenyl cyclooctylcarbamate]
IC50 (human recombinant MAGL): ~10 µM | IC50 (human recombinant FAAH): 0.1 to 1 µM

Cc1ccc(-c2cncc(-c3ncco3)c2)cc1OC(=O)NC1CCCCCCC1 [Example 98, 2-methyl-5-(5-(oxazol-2-yl)pyridin-3-yl)phenyl cyclooctylcarbamate]
IC50 (human recombinant MAGL): ~1 µM | IC50 (human recombinant FAAH): > 1 µM

O=C(NCC1CCCCC1)Oc1cccc(-c2cncc(-c3ccco3)c2)c1 [Example 48, 3-(5-(furan-2-yl)pyridin-3-yl)phenyl (cyclohexylmethyl)carbamate]
IC50 (human recombinant MAGL): ~10 µM | IC50 (human recombinant FAAH): 0.01 to 0.1 µM

CCCCCCCCNC(=O)Oc1ccc(OC)c(-c2cncc(-c3nccs3)c2)c1 [Example 121, 4-methoxy-3-(5-(thiazol-2-yl)pyridin-3-yl)phenyl octylcarbamate]
IC50 (human recombinant MAGL): ~10 µM | IC50 (human recombinant FAAH): 0.01 to 0.1 µM

CC1CCC(NC(=O)Oc2ccc(OC(F)(F)F)c(-c3cncc(-c4ncco4)c3)c2)CC1 (stereo not drawn) [Example 90, 3-(5-(oxazol-2-yl)pyridin-3-yl)-4-(trifluoromethoxy)phenyl (4-methylcyclohexyl)carbamate]
IC50 (human recombinant MAGL): > 1 µM | IC50 (human recombinant FAAH): 0.1 to 1 µM

COc1ccc(OC(=O)NC2CCCC2)cc1-c1cncc(-c2nnco2)c1 [Example 169, 3-(5-(1,3,4-oxadiazol-2-yl)pyridin-3-yl)-4-methoxyphenyl cyclopentylcarbamate]
IC50 (human recombinant MAGL): > 10 µM | IC50 (human recombinant FAAH): 0.01 to 0.1 µM

COC(=O)c1cncc(-c2cccc(OC(=O)NC3CCCCC3)c2)c1 [Example 12, methyl 5-(3-((cyclohexylcarbamoyl)oxy)phenyl)nicotinate]
IC50 (human recombinant MAGL): > 10 µM | IC50 (human recombinant FAAH): 0.01 to 0.1 µM

CCCCCCCNC(=O)Oc1cccc(-c2cncc(-c3ncco3)c2)c1 [Example 72, 3-(5-(oxazol-2-yl)pyridin-3-yl)phenyl heptylcarbamate]
IC50 (human recombinant MAGL): > 1 µM | IC50 (human recombinant FAAH): 0.001 to 0.01 µM

Cc1ccc(-c2cncc(-c3ncco3)c2)cc1OC(=O)NCC1CCCCC1 [Example 93, 2-methyl-5-(5-(oxazol-2-yl)pyridin-3-yl)phenyl (cyclohexylmethyl)carbamate]
IC50 (human recombinant MAGL): 1 to 10 µM | IC50 (human recombinant FAAH): > 1 µM

CN(C(=O)Oc1cccc(-c2cncc(-c3nnco3)c2)c1)C1CCCCC1 [Example 142, 3-(5-(1,3,4-oxadiazol-2-yl)pyridin-3-yl)phenyl cyclohexyl(methyl)carbamate]
IC50 (human recombinant MAGL): > 10 µM | IC50 (human recombinant FAAH): 1 to 10 µM

O=C(NC1CCCCC1)Oc1cccc(-c2cncc(-c3ncco3)c2)c1 [Example 76, 3-(5-(oxazol-2-yl)pyridin-3-yl)phenyl cyclohexylcarbamate]
IC50 (human recombinant MAGL): 1 to 10 µM | IC50 (human recombinant FAAH): 0.01 to 1 µM

O=C(Oc1cccc(-c2cncc(-c3nnco3)c2)c1)N1CC2CCCC2C1 (stereo not drawn) [Example 149, 3-(5-(1,3,4-oxadiazol-2-yl)pyridin-3-yl)phenyl hexahydrocyclopenta[c]pyrrole-2(1H)-carboxylate]
IC50 (human recombinant MAGL): 1 to 10 µM | IC50 (human recombinant FAAH): 0.01 to 0.1 µM

CN(C)c1ccc(OC(=O)NCC2CCCCC2)cc1-c1cncc(-c2nnco2)c1 [Example 181, 3-(5-(1,3,4-oxadiazol-2-yl)pyridin-3-yl)-4-(dimethylamino)phenyl (cyclohexylmethyl)carbamate]
IC50 (human recombinant MAGL): > 10 µM | IC50 (human recombinant FAAH): ~1 µM

CCCCCCCCCCCCCCNC(=O)Oc1cccc(-c2cncc(C(=O)OCC)c2)c1 [Example 4, ethyl 5-(3-((tetradecylcarbamoyl)oxy)phenyl)nicotinate]
IC50 (human recombinant MAGL): 1 to 10 µM | IC50 (human recombinant FAAH): 0.001 to 0.01 µM

COc1ccc(OC(=O)NC2CCCCC2)cc1-c1cncc(-c2ncco2)c1 [Example 81, 4-methoxy-3-(5-(oxazol-2-yl)pyridin-3-yl)phenyl cyclohexylcarbamate]
IC50 (human recombinant MAGL): > 10 µM | IC50 (human recombinant FAAH): 0.01 to 0.1 µM

O=C(NC1CCCC1)Oc1cccc(-c2cncc(-c3nccs3)c2)c1 [Example 118, 3-(5-(thiazol-2-yl)pyridin-3-yl)phenyl cyclopentylcarbamate]
IC50 (human recombinant MAGL): > 10 µM | IC50 (human recombinant FAAH): ~0.1 µM

CCCCCCCCNC(=O)Oc1cc(O)cc(-c2cncc(-c3nnco3)c2)c1 [Example 160, 3-(5-(1,3,4-oxadiazol-2-yl)pyridin-3-yl)-5-hydroxyphenyl octylcarbamate]
IC50 (human recombinant MAGL): 1 to 10 µM | IC50 (human recombinant FAAH): 0.001 to 0.01 µM

O=C(NC1CCCCC1)Oc1cccc(-c2cncc(-c3cccs3)c2)c1 [Example 63, 3-(5-(thiophen-2-yl)pyridin-3-yl)phenyl cyclohexylcarbamate]
IC50 (human recombinant MAGL): > 10 µM | IC50 (human recombinant FAAH): 0.01 to 0.1 µM

Cc1cc(OC(=O)NC2CCCCC2)cc(-c2cncc(-c3ncco3)c2)c1 [Example 101, 3-methyl-5-(5-(oxazol-2-yl)pyridin-3-yl)phenyl cyclohexylcarbamate]
IC50 (human recombinant MAGL): > 10 µM | IC50 (human recombinant FAAH): > 1 µM

COc1ccc(OC(=O)NC2CCCC2)cc1-c1cncc(-c2ccc[nH]2)c1 [Example 44, 3-(5-(1H-pyrrol-2-yl)pyridin-3-yl)-4-methoxyphenyl cyclopentylcarbamate]
IC50 (human recombinant MAGL): > 10 µM | IC50 (human recombinant FAAH): > 1 µM

CCCCCCCCNC(=O)Oc1ccc(OC)c(-c2cncc(-c3nncs3)c2)c1 [Example 213, 3-(5-(1,3,4-thiadiazol-2-yl)pyridin-3-yl)-4-methoxyphenyl octylcarbamate]
IC50 (human recombinant MAGL): ~10 µM | IC50 (human recombinant FAAH): 0.001 to 0.01 µM

CN(C)c1ccc(OC(=O)NCc2ccccc2)cc1-c1cncc(-c2nnco2)c1 [Example 182, 3-(5-(1,3,4-oxadiazol-2-yl)pyridin-3-yl)-4-(dimethylamino)phenyl benzylcarbamate]
IC50 (human recombinant MAGL): > 10 µM | IC50 (human recombinant FAAH): > 1 µM

CCCCCCCNC(=O)Oc1cccc(-c2cncc(C(=O)NO)c2)c1 [Example 22, 3-(5-(hydroxycarbamoyl)pyridin-3-yl)phenyl heptylcarbamate]
IC50 (human recombinant MAGL): > 1 µM | IC50 (human recombinant FAAH): 0.01 to 1 µM

O=C(NC1CCCCC1)Oc1cccc(-c2cncc(-c3ncno3)c2)c1 [Example 205, 3-(5-(1,2,4-oxadiazol-5-yl)pyridin-3-yl)phenyl cyclohexylcarbamate]
IC50 (human recombinant MAGL): > 10 µM | IC50 (human recombinant FAAH): 0.01 to 0.1 µM

O=C(NC12CC3CC(CC(C3)C1)C2)Oc1cccc(-c2cncc(-c3ncco3)c2)c1 [Example 77, 3-(5-(oxazol-2-yl)pyridin-3-yl)phenyl ((1s,3s)-adamantan-1-yl)carbamate]
IC50 (human recombinant MAGL): > 10 µM | IC50 (human recombinant FAAH): > 1 µM

O=C(NC1CCCCCC1)Oc1ccc(OC(F)(F)F)c(-c2cncc(-c3nnco3)c2)c1 [Example 202, 3-(5-(1,3,4-oxadiazol-2-yl)pyridin-3-yl)-4-(trifluoromethoxy)phenyl cycloheptylcarbamate]
IC50 (human recombinant MAGL): > 10 µM | IC50 (human recombinant FAAH): 0.1 to 1 µM

Cc1ccc(-c2cncc(-c3ncco3)c2)cc1OC(=O)NC1CCCCC1 [Example 95, 2-methyl-5-(5-(oxazol-2-yl)pyridin-3-yl)phenyl cyclohexylcarbamate]
IC50 (human recombinant MAGL): > 1 µM | IC50 (human recombinant FAAH): > 1 µM

COc1ccc(OC(=O)NCc2ccccc2)cc1-c1cncc(-c2ccno2)c1 [Example 111, 3-(5-(isoxazol-5-yl)pyridin-3-yl)-4-methoxyphenyl benzylcarbamate]
IC50 (human recombinant MAGL): > 10 µM | IC50 (human recombinant FAAH): 0.1 to 1 µM

O=C(NC1CCCCC1)Oc1cccc(-c2cncc(-c3nnco3)c2)c1 [Example 139, 3-(5-(1,3,4-oxadiazol-2-yl)pyridin-3-yl)phenyl cyclohexylcarbamate]
IC50 (human recombinant MAGL): > 50 µM | IC50 (human recombinant FAAH): 0.01 to 0.1 µM

COC(=O)c1cncc(-c2cccc(OC(=O)NC3CCCC3)c2)c1 [Example 11, methyl 5-(3-((cyclopentylcarbamoyl)oxy)phenyl)nicotinate]
IC50 (human recombinant MAGL): > 10 µM | IC50 (human recombinant FAAH): 0.01 to 0.1 µM

CCCCCCCCNC(=O)Oc1ccc(OC)c(-c2cncc(-c3ccco3)c2)c1 [Example 53, 3-(5-(furan-2-yl)pyridin-3-yl)-4-methoxyphenyl octylcarbamate]
IC50 (human recombinant MAGL): ~10 µM | IC50 (human recombinant FAAH): 0.01 to 0.1 µM

COc1ccc(OC(=O)NC2CCCCC2)cc1-c1cncc(-c2ccc[nH]2)c1 [Example 45, 3-(5-(1H-pyrrol-2-yl)pyridin-3-yl)-4-methoxyphenyl cyclohexylcarbamate]
IC50 (human recombinant MAGL): > 10 µM | IC50 (human recombinant FAAH): > 1 µM

O=C(Nc1cnccc1Cl)N1CCN(Cc2ccc3c(c2)OC(F)(F)O3)CC1 [JNJ-42165279, reference compound]
fold-selectivity over MAGL (selectivity index) (human recombinant MAGL; FAAH over MAGL): 473 times | IC50 (human recombinant MAGL): > 50 µM | IC50 (human recombinant FAAH): 0.106 µM
